Experiments:
[1] = known, cited from earlier work
[2] = Chemical and physical stability of mannitol after sterilization; format: physicochemical; details: 25% Mannitol autoclaved five times at 121° C. for 15 minutes
Experimental: The chemical and physical stability of mannitol after sterilization was determined by autoclaving 25% Mannitol ([…] Pharmaceuticals, Itasca, Ill.) five times at 121° C. for 15 minutes.

[3] = Appearance of fluid compositions, visually examined; format: physicochemical; details: fluid compositions comprising a matrix polymer
Experimental: Fluid compositions made for testing were prepared as described in Example 1, except that 1) 1 mL of each fluid composition was made and the amount of mannitol added to the test fluid compositions was 0% (w/v) for control, 0.5% (w/v), 5% (w/v), 9% (w/v), and 17% (w/v). The appearance of the fluid compositions was visually examined.

**Q.** With `OC[C@@H](O)[C@@H](O)[C@H](O)[C@H](O)CO` [mannitol] as the compound, how does the mass solubility ([1]; in water) read?
**A.** 15.4%

**Q.** What about the “mannitol solubility in water” value [1] of the same compound?
**A.** 1 g mannitol/5.5 ml water

**Q.** And the “chemical and physical stability after sterilization” value [2]?
**A.** chemically and physically stable

**Q.** What about the “mannitol that fluid compositions can include before it begins to precipitate” value [3] of the same compound?
**A.** about 15.4%
